Results from ChEMBL document CHEMBL5625223 (Eur J Med Chem, 2023).
Activity calls are given as the source filed them. The calls are words filed in the database; no cut-off is given here.

Legend:
[1] = biological target: T1, 5-hydroxytryptamine receptor 2A (Homo sapiens, UniProt P28223); assay: Binding affinity to 5HT2A receptor (unknown origin) at 10 uM relative to control
[2] = biological target: T2, Adenosine receptor A1 (Homo sapiens, UniProt P30542); assay: Displacement of […] from human A1AR expressed in Flp-In-T-REx-293 cells assessed as inhibition constant; assay type: cell-based
T2 sequence (P30542 whole entry): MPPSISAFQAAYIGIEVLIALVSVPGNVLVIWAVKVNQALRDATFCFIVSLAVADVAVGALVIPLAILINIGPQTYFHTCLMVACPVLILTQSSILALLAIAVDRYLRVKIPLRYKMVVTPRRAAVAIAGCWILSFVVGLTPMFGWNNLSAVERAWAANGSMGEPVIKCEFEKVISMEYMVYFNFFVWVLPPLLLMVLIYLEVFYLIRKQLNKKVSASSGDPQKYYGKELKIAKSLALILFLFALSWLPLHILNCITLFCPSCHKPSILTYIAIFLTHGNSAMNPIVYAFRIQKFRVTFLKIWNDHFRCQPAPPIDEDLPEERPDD

[3] = biological target: Translocator protein (Homo sapiens, UniProt P30536); assay: Binding affinity to TSPO (unknown origin) assessed as inhibition constant
[4] = biological target: Adenosine receptor A2a (Homo sapiens) (UniProt P29274); assay: Displacement of […] from human A2AR expressed in HEK cells at 10 uM relative to control; assay type: cell-based
[5] = biological target: T3, Adenosine receptor A3 (Homo sapiens, UniProt P0DMS8); assay: Displacement of […] from human A3AR expressed in HEK cells assessed as inhibition constant; assay type: cell-based
T3 sequence (P0DMS8 whole entry): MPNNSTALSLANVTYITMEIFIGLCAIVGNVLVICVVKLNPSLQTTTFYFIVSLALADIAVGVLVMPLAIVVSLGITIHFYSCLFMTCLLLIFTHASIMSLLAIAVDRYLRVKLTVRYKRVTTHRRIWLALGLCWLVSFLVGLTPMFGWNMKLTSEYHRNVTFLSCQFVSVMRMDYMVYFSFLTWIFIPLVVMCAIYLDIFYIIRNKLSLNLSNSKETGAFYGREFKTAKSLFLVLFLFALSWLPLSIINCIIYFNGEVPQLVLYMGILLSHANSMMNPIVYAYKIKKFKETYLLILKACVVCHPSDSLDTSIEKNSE

[6] = biological target: 5-hydroxytryptamine receptor 1D (Homo sapiens, UniProt P28221); assay: Binding affinity to 5HT1D receptor (unknown origin) assessed as inhibition constant
[7] = biological target: Beta-3 adrenergic receptor (Homo sapiens, UniProt P13945); assay: Binding affinity to beta3 adrenergic receptor (unknown origin) assessed as inhibition constant
[8] = biological target: T4, 5-hydroxytryptamine receptor 2C (Homo sapiens) (UniProt P28335); assay: Displacement of [3H]-Mesulergine from human 5-HT2C expressed in Flp-In-T-REx-293 cells at 10 uM incubated for 1 hr relative to control; assay type: cell-based; details: filed as antagonist
T4 sequence (whole entry): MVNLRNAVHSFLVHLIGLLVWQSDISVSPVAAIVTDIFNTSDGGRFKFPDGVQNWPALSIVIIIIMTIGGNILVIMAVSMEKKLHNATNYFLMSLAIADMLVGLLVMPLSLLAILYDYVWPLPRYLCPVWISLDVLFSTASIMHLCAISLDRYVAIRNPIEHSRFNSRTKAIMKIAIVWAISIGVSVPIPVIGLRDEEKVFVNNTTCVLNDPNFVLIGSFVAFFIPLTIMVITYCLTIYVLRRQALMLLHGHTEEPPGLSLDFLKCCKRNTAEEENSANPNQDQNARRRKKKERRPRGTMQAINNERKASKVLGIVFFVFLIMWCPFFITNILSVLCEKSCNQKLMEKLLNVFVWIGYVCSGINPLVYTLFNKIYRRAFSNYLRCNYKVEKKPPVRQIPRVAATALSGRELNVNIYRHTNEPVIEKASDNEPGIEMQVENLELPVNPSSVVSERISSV

[9] = biological target: T5, D(4) dopamine receptor (Homo sapiens, UniProt P21917); assay: Binding affinity to dopamine D4 receptor (unknown origin) assessed as inhibition constant
T5 sequence (P21917 whole entry): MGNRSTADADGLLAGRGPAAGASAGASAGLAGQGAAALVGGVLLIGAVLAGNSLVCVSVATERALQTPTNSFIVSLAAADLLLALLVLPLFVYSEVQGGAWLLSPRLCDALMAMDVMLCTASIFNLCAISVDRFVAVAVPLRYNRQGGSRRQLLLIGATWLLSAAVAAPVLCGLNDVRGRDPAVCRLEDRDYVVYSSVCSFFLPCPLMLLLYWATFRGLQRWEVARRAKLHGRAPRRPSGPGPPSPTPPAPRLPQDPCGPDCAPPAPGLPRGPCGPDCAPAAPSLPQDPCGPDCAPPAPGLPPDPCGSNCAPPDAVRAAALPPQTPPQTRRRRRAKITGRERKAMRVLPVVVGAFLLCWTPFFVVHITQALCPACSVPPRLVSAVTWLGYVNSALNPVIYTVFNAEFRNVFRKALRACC

[10] = biological target: T6, Alpha-2C adrenergic receptor (Homo sapiens, UniProt P18825); assay: Binding affinity to alpha2C receptor (unknown origin) assessed as inhibition constant
T6 sequence (P18825 whole entry): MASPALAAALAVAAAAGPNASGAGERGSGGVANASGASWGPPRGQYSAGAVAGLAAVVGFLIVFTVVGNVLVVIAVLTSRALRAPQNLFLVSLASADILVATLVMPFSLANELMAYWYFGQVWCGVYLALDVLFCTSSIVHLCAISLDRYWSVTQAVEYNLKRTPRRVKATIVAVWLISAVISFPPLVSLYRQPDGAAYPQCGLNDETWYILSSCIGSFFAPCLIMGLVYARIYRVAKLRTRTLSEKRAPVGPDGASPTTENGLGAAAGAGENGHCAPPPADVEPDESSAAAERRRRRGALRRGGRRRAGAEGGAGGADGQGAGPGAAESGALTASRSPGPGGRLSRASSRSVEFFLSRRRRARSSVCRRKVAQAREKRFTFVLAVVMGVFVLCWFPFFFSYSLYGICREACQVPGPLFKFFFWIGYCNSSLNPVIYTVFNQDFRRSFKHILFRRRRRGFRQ

[11] = biological target: T1, 5-hydroxytryptamine receptor 2A; assay: Displacement of [3H]ketanserin from human 5-HT2A receptor expressed in HEK293 cells at 10 uM incubated for 1 hr relative to control; assay type: cell-based
[12] = biological target: T1, 5-hydroxytryptamine receptor 2A; details: Flp-In-T-REx-293, time 1.0 hrs
[13] = biological target: T7, Adenosine receptor A3 (Homo sapiens) (UniProt P0DMS8); assay: Displacement of […] from human A3AR expressed in HEK cells at 10 uM relative to control; assay type: cell-based; details: filed as agonist
T7 sequence (whole entry): T3 sequence (P0DMS8 whole entry)

[14] = biological target: T8, 5-hydroxytryptamine receptor 2C (Homo sapiens, UniProt P28335); assay: Displacement of [3H]-Mesulergine from human 5-HT2C expressed in Flp-In-T-REx-293 cells assessed as inhibition constant incubated for 1 hr; assay type: cell-based; details: read-out: Ki
T8 sequence (P28335 whole entry): T4 sequence (whole entry)

[15] = biological target: T4, 5-hydroxytryptamine receptor 2C (Homo sapiens); details: Flp-In-T-REx-293, filed as antagonist, time 1.0 hrs
[16] = biological target: Histamine H1 receptor (Homo sapiens, UniProt P35367); assay: Binding affinity to histamine H1 receptor (unknown origin) assessed as inhibition constant
[17] = biological target: T9, 5-hydroxytryptamine receptor 2B (Homo sapiens, UniProt P41595); assay: Displacement of [3H]-LSD from human 5-HT2B receptor expressed in HEK cells assessed as inhibition constant incubated for 1 hr; assay type: cell-based
[18] = biological target: T9, 5-hydroxytryptamine receptor 2B; details: Flp-In-T-REx-293, filed as antagonist, time 1.0 hrs
[19] = biological target: T9, 5-hydroxytryptamine receptor 2B; assay: Agonist activity at human 5HT2B receptor expressed in human Flp-In-293 cells assessed as Gq-mediated calcium flux measured for 60 mins by BRET assay; assay type: functional, cell-based
[20] = species on record: Homo sapiens; assay: Selectivity ratio of Kb for antagonist activity at human 5HT2B receptor to Kb for antagonist activity at human 5HT2C receptor
[21] = biological target: T9, 5-hydroxytryptamine receptor 2B; assay: Agonist activity at human 5HT2B receptor expressed in human Flp-In-293 cells assessed as beta-arrestin2 recruitment measured for 60 mins by BRET assay; assay type: functional, cell-based
[22] = biological target: T9, 5-hydroxytryptamine receptor 2B; assay: Agonist activity at human 5HT2B receptor expressed in human Flp-In-293 cells assessed as beta-arrestin1 recruitment measured for 60 mins by BRET assay; assay type: functional, cell-based

Chain of Adenosine receptor A2a (Homo sapiens) (P29274 whole entry): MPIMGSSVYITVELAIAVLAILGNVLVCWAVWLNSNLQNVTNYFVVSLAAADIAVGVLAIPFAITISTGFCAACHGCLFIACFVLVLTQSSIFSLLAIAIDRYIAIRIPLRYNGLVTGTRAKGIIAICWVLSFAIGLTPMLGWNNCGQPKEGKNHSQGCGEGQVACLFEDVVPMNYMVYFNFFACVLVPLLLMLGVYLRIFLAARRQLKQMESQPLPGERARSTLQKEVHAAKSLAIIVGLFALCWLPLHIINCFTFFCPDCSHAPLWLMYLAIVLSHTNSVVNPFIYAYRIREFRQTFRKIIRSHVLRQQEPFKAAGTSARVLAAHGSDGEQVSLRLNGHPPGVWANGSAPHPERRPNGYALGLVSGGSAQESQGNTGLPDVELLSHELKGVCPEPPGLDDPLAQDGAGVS
T1 sequence (P28223 whole entry): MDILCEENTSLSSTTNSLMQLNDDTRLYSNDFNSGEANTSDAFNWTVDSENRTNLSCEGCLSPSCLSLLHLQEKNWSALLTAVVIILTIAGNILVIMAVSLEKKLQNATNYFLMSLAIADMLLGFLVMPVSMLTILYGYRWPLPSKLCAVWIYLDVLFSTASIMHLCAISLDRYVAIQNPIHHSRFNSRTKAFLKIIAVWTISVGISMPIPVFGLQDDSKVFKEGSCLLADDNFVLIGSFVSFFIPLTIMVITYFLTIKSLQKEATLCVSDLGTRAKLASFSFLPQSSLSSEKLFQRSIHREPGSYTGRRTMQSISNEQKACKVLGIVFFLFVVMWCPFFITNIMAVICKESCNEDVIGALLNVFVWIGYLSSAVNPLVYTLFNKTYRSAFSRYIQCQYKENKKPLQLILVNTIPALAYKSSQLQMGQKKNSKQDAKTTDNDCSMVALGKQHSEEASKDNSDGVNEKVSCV
T9 sequence (P41595 whole entry): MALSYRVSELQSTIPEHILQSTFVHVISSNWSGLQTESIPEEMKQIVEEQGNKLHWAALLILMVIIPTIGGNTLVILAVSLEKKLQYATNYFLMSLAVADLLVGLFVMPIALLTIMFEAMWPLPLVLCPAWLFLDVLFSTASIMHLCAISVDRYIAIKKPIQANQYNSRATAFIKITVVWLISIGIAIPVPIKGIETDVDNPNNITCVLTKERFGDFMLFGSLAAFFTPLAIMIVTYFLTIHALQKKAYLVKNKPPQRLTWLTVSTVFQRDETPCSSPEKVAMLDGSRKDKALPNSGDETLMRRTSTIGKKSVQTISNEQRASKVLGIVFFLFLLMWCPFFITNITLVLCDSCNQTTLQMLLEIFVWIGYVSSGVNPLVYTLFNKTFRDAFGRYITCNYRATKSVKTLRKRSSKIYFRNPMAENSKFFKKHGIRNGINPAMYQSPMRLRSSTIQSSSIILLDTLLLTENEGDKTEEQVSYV
Chain of Histamine H1 receptor (P35367 whole entry): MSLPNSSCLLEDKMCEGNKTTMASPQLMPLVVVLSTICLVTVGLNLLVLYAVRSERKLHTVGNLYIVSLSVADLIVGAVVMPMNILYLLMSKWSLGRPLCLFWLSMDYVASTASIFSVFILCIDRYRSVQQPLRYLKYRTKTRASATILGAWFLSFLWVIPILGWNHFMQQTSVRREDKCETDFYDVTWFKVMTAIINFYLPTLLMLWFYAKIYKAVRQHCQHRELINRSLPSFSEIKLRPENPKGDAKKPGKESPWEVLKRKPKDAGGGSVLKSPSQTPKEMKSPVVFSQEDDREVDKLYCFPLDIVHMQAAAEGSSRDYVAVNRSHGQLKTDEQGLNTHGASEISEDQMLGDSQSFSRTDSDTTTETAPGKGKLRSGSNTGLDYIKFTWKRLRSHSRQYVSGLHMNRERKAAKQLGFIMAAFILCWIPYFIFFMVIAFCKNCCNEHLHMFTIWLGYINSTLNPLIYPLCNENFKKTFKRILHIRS
Chain of 5-hydroxytryptamine receptor 1D (P28221 whole entry): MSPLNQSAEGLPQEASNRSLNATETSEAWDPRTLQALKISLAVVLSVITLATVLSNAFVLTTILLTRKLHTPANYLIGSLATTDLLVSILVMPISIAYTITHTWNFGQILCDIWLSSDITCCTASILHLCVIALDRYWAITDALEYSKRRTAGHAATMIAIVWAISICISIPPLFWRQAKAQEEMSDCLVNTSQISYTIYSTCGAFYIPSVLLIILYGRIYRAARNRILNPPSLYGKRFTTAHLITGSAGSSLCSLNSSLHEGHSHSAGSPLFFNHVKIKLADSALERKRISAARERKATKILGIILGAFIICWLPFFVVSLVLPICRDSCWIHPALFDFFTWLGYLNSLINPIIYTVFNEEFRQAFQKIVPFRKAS
Chain of Translocator protein (P30536 whole entry): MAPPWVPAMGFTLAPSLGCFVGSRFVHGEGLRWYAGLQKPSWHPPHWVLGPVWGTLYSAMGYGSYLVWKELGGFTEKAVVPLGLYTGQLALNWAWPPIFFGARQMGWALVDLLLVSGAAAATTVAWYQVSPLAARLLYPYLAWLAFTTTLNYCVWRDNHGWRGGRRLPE
Chain of Beta-3 adrenergic receptor (P13945 whole entry): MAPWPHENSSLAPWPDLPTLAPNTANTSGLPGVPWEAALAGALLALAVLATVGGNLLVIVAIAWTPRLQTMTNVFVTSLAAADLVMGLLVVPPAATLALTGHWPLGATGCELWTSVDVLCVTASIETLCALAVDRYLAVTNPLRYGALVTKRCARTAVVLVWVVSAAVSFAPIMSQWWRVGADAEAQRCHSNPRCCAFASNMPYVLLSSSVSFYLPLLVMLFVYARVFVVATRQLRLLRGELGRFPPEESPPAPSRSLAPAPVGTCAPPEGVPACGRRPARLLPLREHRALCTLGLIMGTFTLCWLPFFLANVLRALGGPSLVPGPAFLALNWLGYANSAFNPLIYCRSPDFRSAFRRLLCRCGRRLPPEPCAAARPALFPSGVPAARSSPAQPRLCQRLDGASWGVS

Compound | Ki [2] [nM] | Activity [4] [%] | Ki [5] [nM] | Activity [11] [%] | pKb [12] | Activity [13] [%] | Ki [14] [nM] | pKb [15] | other results
OC[C@@]12C[C@@H]1[C@@H](n1cnc3c(NC(C4CCC4)C4CCC4)nc(I)nc31)[C@H](O)[C@@H]2O | 204 | 37 | 34300 |  |  |  |  |  | Activity [1]: 16%; Ki [3]: 2100 nM
CCSC[C@@]12C[C@@H]1[C@@H](n1cnc3c(NC(C4CCCC4)C4CCCC4)nc(Cl)nc31)[C@H](O)[C@@H]2O |  | -48 | 6280 | 38 |  |  |  |  | Ki [6]: 5200 nM; Ki [7]: 1500 nM; Activity [8]: 47%; Ki [9]: 3600 nM; Ki [10]: 2100 nM
OC[C@@]12C[C@@H]1[C@@H](n1cnc3c(N[C@@H](C4CCC4)C4CC4)nc(I)nc31)[C@H](O)[C@@H]2O | 63.9 |  |  | 26 | < 5 | 42 | 552 | 6.83 | Ki [16]: 2100 nM
CCOC(=O)[C@@]12C[C@@H]1[C@@H](n1cnc3c(N[C@H](C4CCC4)C4CC4)nc(I)nc31)[C@H](O)[C@@H]2O | 2180 | 15 |  | 13 | < 5 | 83 | 331 | 7.11 | Ki [17]: 33 nM; pKb [18]: 8.76; Activity [19]: inactive; Ratio [20]: 44.7; Activity [21]: inactive; Activity [22]: inactive
